Experimental data reported in patent publication US20240082260A1, “INHIBITOR OF PROTEIN KINASE D FOR USE IN PREVENTION OR TREATMENT OF HYPERLIPIDEMIA” (priority 2021, published 2024).

Columns and labels:
[1] = system: Caco2 cells deficient in PKD2; experiment: 14C-fatty acid basolateral release in Caco2 cells expressing shPkd2 in transwell system; assay type: cell-based, human; settings: 24 h, FIG. 6B
Experimental: Caco2 cells were cultured in Dulbecco's modified eagle's medium 4.5 g/L glucose (DMEM), 10% fetal bovine serum (FBS), non-essential amino acids (NEAA), 1 mM sodium pyruvate, and 40 μg/mL gentamycin. For the generation of shRNA cell lines, Pkd2 shRNA lentiviral sequences or scramble (non-targeting) were first cloned into the pLKO.1-puro vector then packed into viral particles in packaging cells (HEK293T) using 3rd generation packaging vectors. Caco2 cells were spinfected with viral supernatant then selected with puromycin and the deletion efficiency was further assessed by western blot.
Lipid transport studies were assessed in Caco2 cells seeded in trans-wells. 1.5×10^5 cells were seeded into a 12-well cell culture insert of 1 μm pore size Trans-well and maintained in for 14 consecutive days with media change every two days. For the lipids uptake and release, the apical side of the membrane was loaded with radioactive ^14C-palmitic acid (0.2 μCi), oleic acid (1 mM), and taurocholic acid (2 mM) in DMEM high glucose 10% FBS. The basal medium contained DMEM high glucose 0.1% FBS. After 24 hours of incubation, cell lysates and the apical and basolateral medium was collected and the ^14C-palmitic acid was measured in a scintillation counter for aliquots of apical and basal medium and for cell lysate. […]

[2] = system: male C57BL/6 mice on HFD; experiment: Oral PKD inhibitor in HFD-fed C57BL/6 mice (diet-induced obesity and diabetes); assay type: in vivo, mouse
Experimental: Mice body weight development was closely monitored and reported here on a weekly basis when mice were on a specified diet. All experiments were performed in male mice.
PKD inhibitor CRT0066101 was dissolved in water (10 mg/kg) and administered orally to the mice by daily gavage, while the control mice were gavaged with water. Mice were maintained on the specified diets and had ab libitum access to food and water. C57BL/6 mice were administered CRT inhibitor treatment at 4-weeks of age, while for the rescue experiment, inhibitor was given under the same circumstances but treatment started only after 7 weeks of HFD feeding. Intestinal barrier permeability was further assessed 1 hour after oral gavage of FITC-Dextran 4.
Energy expenditure, food intake, and activity measurements were obtained in a PhenoMaster (TSE Systems) as previously described (El-Merahbi, Viera et al., 2020, Trujillo Viera, El-Merahbi et al., 2016). Briefly, mice were kept in separate metabolic cages with unlimited access to water and to the specified diet. After 48 hours of acclimation, data was collected every 10 min including photobeam breaks, oxygen consumption, carbon dioxide dissipation, and food and water consumption. Results in bars represent the average of each night/day cycle.
A glucose tolerance test (GTT) was performed after overnight fasting. Mice blood glucose was assessed before and 15, 30, 60, 90, and 120 minutes after intraperitoneal injection of glucose (2 g/kg). For the Insulin tolerance test (ITT), the same measurements were performed after 4 hours of fasting and intraperitoneal injection of 0.5 U/kg of recombinant insulin. For glucose measurements, one blood drop was drawn from the tail tip into a test strip and measured with a glucometer (Accu-Chek® Roche).
Lipids tolerance test was performed as described previously (Wang, Rong et al., 2016b). Briefly, overnight fasted mice were gavaged with olive oil (10 μL/g body weight). Blood was collected at indicated times for measurement of serum triglycerides content. For lipids absorption under tyloxapol treatment, 250 μg/g of body weight were i.p. injected to mice 30 minutes before the gavage of olive oil 5 μL/g body weight.
Liver triglycerides were measured by homogenization of 50 mg of liver in 500 uL of lysis buffer and lipids extraction in methanol:chloroform, phase extraction and evaporation. The lipids were redissolved in DMSO and triglycerides quantified with the mentioned kit and according to the manufacturers' instructions.
The bedding of single-caged mice was collected and the ingested food ingestion from the individual mice was assessed. All the stools were manually collected. After overnight dissecation at 60° C., the samples were weighted and frozen for further analysis. The amount of feces produced per mouse was compared to the amount of food consumed and the weight gain. About 3 g of dried feces material were homogenized and 1 g was pressed into a tablet and accurately weighted. Calorie content from feces and diet was measured in duplicates in a 6400 Automatic Isoperibol calorimeter (Parr Instrument Company). To analyze energy excreted, the amount of energy in feces was compared to the amount of energy ingested (the product between grams of food and caloric content of the food). Lipids extraction from feces was performed as previously described (Kraus, Yang et al., 2015).
Proteins from tissues and cell culture were extracted with RIPA buffer supplemented with phosphatase and protease inhibitor (PPI, Thermo Fisher Scientific). Protein concentration was measured by Pierce™ BCA Protein Assay Kit (Thermo Fisher Scientific) following the manufacturer's protocol. Reduced protein extracts were separated on 10% SDS-PAGE gels by electrophoresis and transferred to PVDF membranes under wet transfer. Membranes were blocked in 5% (w/v) milk in TBS-T before overnight probing with indicated primary antibodies at 4° C., followed by TBS-T washes and incubation with corresponding secondary antibody.

[3] = system: LDLR-/- mice; experiment: Atheroma formation in high cholesterol diet-fed LDLR-/- mice; assay type: in vivo, mouse; settings: oral 10 mg/kg a day, 7th to 17th week of high cholesterol diet, vs solvent
Excerpt: To assess the impact of PKD2 on cholesterol levels as well as on atheroma formation, we utilized a mouse genetic model of atheroma formation and mice carrying inactivatory mutation in the sequence encoding PKD2 (Matthews et al, 2010). Mice deficient for Low-density lipoprotein receptor (LDLR), develop hyperlipidemia (elevated levels of cholesterol) and deposit a significant amount of atherosclerotic plaques in the vessels especially when fed with a high cholesterol diet (containing 1.25% of the cholesterol in the food) (Ishibashi et al, 1993). We crossed mice deficient for LDLR (LDLR−/−) and mice carrying inactivatory mutation of PKD2 (PKD^ki/ki) to generate double mutant mice (LDLR−/− PKD^ki/ki) and corresponding control animals, LDLR−/−. These animals were fed for 18 weeks with high cholesterol diet. […] The relative plaque area was also quantified.
To test if inhibition of PKD by CRT0066101 compound is also sufficient to reduce atherosclerotic plaque formation, we also utilized high cholesterol diet-fed LDLR−/− mice as a model. […] After the 17th week of the experiment, mice were sacrificed and lipid levels in the blood, as well as the amount of atherosclerotic plaques, were assessed as described for the genetic model above.

CC[C@@H](N)CNc1ccnc(-c2cc(-c3cnn(C)c3)ccc2O)n1 [CRT0066101]
TG secretion (basolateral release of 14C-labeled fatty acids) [1]: did not reduce TG secretion
accumulation of TG in the liver ([2]; oral 10 mg/kg daily, HFD): did not affect
brown adipose tissue morphology ([2]; oral 10 mg/kg daily, HFD): promoted healthier, multilocular brown adipose tissue
energy expenditure ([2]; oral 10 mg/kg daily, HFD): did not affect
food consumption ([2]; oral 10 mg/kg daily, HFD): did not affect
markers of liver function ([2]; oral 10 mg/kg daily, HFD): did not affect
mobility ([2]; oral 10 mg/kg daily, HFD): did not affect
body weight gain ([2]; oral 10 mg/kg daily, HFD, 13 weeks, vs water, FIG. 6G): significantly lower body weight gain
levels of APOA4 in the intestine (jejunum, western blot) ([2]; oral 10 mg/kg daily, HFD, 13 weeks, FIG. 6F): increased levels of APOA4
fecal energy excretion ([2]; oral 10 mg/kg daily, HFD, FIG. 6D): greater fecal energy excretion
intestinal TG absorption (lipids tolerance test after olive oil gavage) ([2]; oral 10 mg/kg daily, after 9 weeks HFD, FIG. 6E): decreased intestinal TG absorption
glucose tolerance (GTT) ([2]; oral 10 mg/kg daily, after 10 weeks of treatment and HFD, FIG. 6H): improved
insulin tolerance (ITT) ([2]; oral 10 mg/kg daily, after 11 weeks of treatment and HFD, FIG. 6I): improved
obesity induced by a high-fat diet (summary statement) ([2]; oral administration, mice, also said to prevent hyperlipidemia and diabetes and improve microflora): significantly reduces obesity induced by a high-fat diet
blood cholesterol levels ([3]; FIG. 10A): reduction in cholesterol levels
size of atherosclerotic plaques (relative area in aorta, OilRedO) ([3]; FIG. 10B-C): smaller size of atherosclerotic plaques
